Consider 14 compounds from US20240208992A1, “MACROCYCLES AS CFTR MODULATORS” (Idorsia Pharmaceuticals Ltd, priority 2021, published 2024).

The experiment concerns the target human F508del-CFTR (Homo sapiens, UniProt P13569, DEL508-508). The experiment is described as follows: F508del-CFTR cell surface expression (corrector activity), DiscoveRx ß-galactosidase complementation chemiluminescence assay in recombinant U2OS cell line.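 For all read-outs here: U2OS cells co-expressing ProLink-tagged F508del-CFTR and a membrane-anchored enzyme acceptor, where more surface CFTR restores β-galactosidase activity measured by chemiluminescence.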 As to conditions: U2OS cell line, 16h compound incubation; for EC50: EC50, F508del-CFTR cell surface expression, geomean values; for Emax: U2OS, in relation to the Emax of the corrector lumacaftor (=100%), arithmetic mean values.

Chain of human F508del-CFTR (P13569 with tags, fused parts or gaps DEL508-508): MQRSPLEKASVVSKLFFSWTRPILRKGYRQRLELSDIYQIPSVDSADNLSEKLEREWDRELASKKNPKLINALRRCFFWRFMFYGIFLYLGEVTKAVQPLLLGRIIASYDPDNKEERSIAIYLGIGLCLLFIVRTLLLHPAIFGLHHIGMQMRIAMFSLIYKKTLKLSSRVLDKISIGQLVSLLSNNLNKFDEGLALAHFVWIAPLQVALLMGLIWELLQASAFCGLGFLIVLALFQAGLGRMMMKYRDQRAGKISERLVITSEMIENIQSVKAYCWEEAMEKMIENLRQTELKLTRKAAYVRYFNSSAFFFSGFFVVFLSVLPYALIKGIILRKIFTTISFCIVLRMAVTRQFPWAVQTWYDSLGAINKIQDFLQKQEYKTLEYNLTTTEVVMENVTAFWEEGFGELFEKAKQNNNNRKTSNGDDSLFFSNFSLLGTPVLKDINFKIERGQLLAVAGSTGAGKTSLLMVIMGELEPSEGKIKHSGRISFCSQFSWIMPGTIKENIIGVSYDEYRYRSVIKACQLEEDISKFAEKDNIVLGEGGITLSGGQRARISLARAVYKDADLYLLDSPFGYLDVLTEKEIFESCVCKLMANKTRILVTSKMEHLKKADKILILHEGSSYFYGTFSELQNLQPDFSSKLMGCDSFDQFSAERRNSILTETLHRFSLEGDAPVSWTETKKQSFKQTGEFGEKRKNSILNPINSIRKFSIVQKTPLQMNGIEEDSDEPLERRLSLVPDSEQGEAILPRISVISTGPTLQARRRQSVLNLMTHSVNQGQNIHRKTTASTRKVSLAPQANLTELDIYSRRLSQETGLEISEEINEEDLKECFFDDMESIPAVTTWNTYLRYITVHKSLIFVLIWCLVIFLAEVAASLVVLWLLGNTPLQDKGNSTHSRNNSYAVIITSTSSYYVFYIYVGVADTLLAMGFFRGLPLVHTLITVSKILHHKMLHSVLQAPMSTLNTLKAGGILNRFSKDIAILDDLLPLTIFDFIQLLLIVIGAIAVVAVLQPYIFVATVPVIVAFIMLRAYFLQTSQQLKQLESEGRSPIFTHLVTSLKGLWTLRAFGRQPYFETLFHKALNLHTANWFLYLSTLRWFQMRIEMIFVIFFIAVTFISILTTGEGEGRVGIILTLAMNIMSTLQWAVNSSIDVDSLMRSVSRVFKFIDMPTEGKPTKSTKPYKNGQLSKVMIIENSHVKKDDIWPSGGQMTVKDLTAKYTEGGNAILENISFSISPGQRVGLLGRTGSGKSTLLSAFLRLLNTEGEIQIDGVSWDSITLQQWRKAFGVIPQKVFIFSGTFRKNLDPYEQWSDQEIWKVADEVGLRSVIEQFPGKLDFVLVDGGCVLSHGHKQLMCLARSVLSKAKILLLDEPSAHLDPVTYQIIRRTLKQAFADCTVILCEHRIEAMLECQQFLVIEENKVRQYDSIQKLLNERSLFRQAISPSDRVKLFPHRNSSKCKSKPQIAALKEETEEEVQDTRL

The term EC50 denotes the concentration at which the effect is half-maximal. The term Emax denotes the greatest response seen or fitted, relative to the assay's reference. On to `COc1cc2c(cc1OC)C(=O)N[C@H](C(=O)NCCc1ccc3c(c1)OCCCC3)CC(=O)N(C)[C@@H](CC(C)C)C(=O)N(C)CC(=O)N[C@H](Cc1ccccc1)CO2` [Example 161, (3R,9S,13S)-3-benzyl-9-isobutyl-17,18-dimethoxy-7,10-dimethyl-5,8,11,15-tetraoxo-N-(2-(2,3,4,5-tetrahydrobenzo[b]oxepin-8-yl)ethyl)-2,3,4,5,6,7,8,9,10,11,12,13,14,15-tetradecahydrobenzo[p][1]oxa[4,7,10,14]tetraazacycloheptadecine-13-carboxamide], for which the EC50 came to 250 nM and the Emax amounted to 137%.
For `COc1ccc(C2(CNC(=O)[C@@H]3CC(=O)N(C)[C@@H](CC(C)C)C(=O)N(C)C4(CC4)C(=O)N[C@H](Cc4ccccc4)COc4cnc5ccc(F)cc5c4C(=O)N3)CC2)cc1OC` [Example 166, (3′S,7′S,13′R)-13′-benzyl-N-((1-(3,4-dimethoxyphenyl)cyclopropyl)methyl)-20′-fluoro-7′-isobutyl-6′,9′-dimethyl-1′,5′,8′,11′-tetraoxo-2′,3′,4′,5′,6′,7′,8′,9′,11′,12′,13′,14′-dodecahydro-1′H-spiro[cyclopropane-1,10′-[1]oxa[4,7,10,14]tetraazacycloheptadecino[17,16-c]quinoline]-3′-carboxamide], the EC50 is 624 nM and the Emax was found to be 111%.
The matching figures for `CC(C)C[C@H]1C(=O)N(C)C2(CC2)C(=O)N[C@H](Cc2ccccc2)COc2cnc3ccc(F)cc3c2C(=O)N[C@H](C(=O)NCCc2cccc(S(C)(=O)=O)c2)CC(=O)N1C` [Example 167, (3′S,7′S,13′R)-13′-benzyl-20′-fluoro-7′-isobutyl-6′,9′-dimethyl-N-(3-(methylsulfonyl)phenethyl)-1′,5′,8′,11′-tetraoxo-2′,3′,4′,5′,6′,7′,8′,9′,11′,12′,13′,14′-dodecahydro-1′H-spiro[cyclopropane-1,10′-[1]oxa[4,7,10,14]tetraazacycloheptadecino[17,16-c]quinoline]-3′-carboxamide]: 822 nM and 238%.
On the same counts, the results for `CC(C)C[C@H]1C(=O)N(C)C2(CC2)C(=O)N[C@H](Cc2ccccc2)COc2cnc3ccc(F)cc3c2C(=O)N[C@H](C(=O)NCCc2cccc(C#N)c2)CC(=O)N1C` [Example 168, (3′S,7′S,13′R)-13′-benzyl-N-(3-cyanophenethyl)-20′-fluoro-7′-isobutyl-6′,9′-dimethyl-1′,5′,8′,11′-tetraoxo-2′,3′,4′,5′,6′,7′,8′,9′,11′,12′,13′,14′-dodecahydro-1′H-spiro[cyclopropane-1,10′-[1]oxa[4,7,10,14]tetraazacycloheptadecino[17,16-c]quinoline]-3′-carboxamide] are 338 nM and 193%.
As for `CC(C)C[C@H]1C(=O)N(C)C2(CC2)C(=O)N[C@H](Cc2ccccc2)COc2cnc3ccc(F)cc3c2C(=O)N[C@H](C(=O)NCCc2cccc(C(F)(F)F)c2)CC(=O)N1C` [Example 169, (3′S,7′S,13′R)-13′-benzyl-20′-fluoro-7′-isobutyl-6′,9′-dimethyl-1′,5′,8′,11′-tetraoxo-N-(3-(trifluoromethyl)phenethyl)-2′,3′,4′,5′,6′,7′,8′,9′,11′,12′,13′,14′-dodecahydro-1′H-spiro[cyclopropane-1,10′-[1]oxa[4,7,10,14]tetraazacycloheptadecino[17,16-c]quinoline]-3′-carboxamide], the EC50 came to 334 nM and the Emax is 170%.
Take `CC(C)C[C@H]1C(=O)N(C)C2(CC2)C(=O)N[C@H](Cc2ccccc2)COc2cnc3ccc(F)cc3c2C(=O)N[C@H](C(=O)NCCc2ccc(N3CCOCC3)cc2)CC(=O)N1C` [Example 170, (3′S,7′S,13′R)-13′-benzyl-20′-fluoro-7′-isobutyl-6′,9′-dimethyl-N-(4-morpholinophenethyl)-1′,5′,8′,11′-tetraoxo-2′,3′,4′,5′,6′,7′,8′,9′,11′,12′,13′,14′-dodecahydro-1′H-spiro[cyclopropane-1,10′-[1]oxa[4,7,10,14]tetraazacycloheptadecino[17,16-c]quinoline]-3′-carboxamide]: the EC50 was 329 nM and the Emax was 267%.
The matching figures for `CC(C)C[C@H]1C(=O)N2CCCC[C@@H]2C(=O)N[C@H](Cc2ccccc2)COc2cnc3ccc(F)cc3c2C(=O)N[C@H](C(=O)NCCc2noc(C(C)C)n2)CC(=O)N1C` [Example 171, (9S,13S,19aR,22R)-22-benzyl-5-fluoro-13-isobutyl-N-(2-(5-isopropyl-1,2,4-oxadiazol-3-yl)ethyl)-12-methyl-7,11,14,20-tetraoxo-7,8,9,10,11,12,13,14,17,18,19,19a,20,21,22,23-hexadecahydro-16H-pyrido[2′,1′:6,7][1]oxa[4,7,10,14]tetraazacycloheptadecino[17,16-c]quinoline-9-carboxamide]: 144 nM and 301%.
The matching figures for `CC(C)C[C@H]1C(=O)N(C)C2(CC2)C(=O)N[C@H](Cc2ccccc2)COc2cnc3ccc(F)cc3c2C(=O)N[C@H](C(=O)NCCn2cc(C3CC3)cn2)CC(=O)N1C` [Example 172, (3′S,7′S,13′R)-13′-benzyl-N-(2-(4-cyclopropyl-1H-pyrazol-1-yl)ethyl)-20′-fluoro-7′-isobutyl-6′,9′-dimethyl-1′,5′,8′,11′-tetraoxo-2′,3′,4′,5′,6′,7′,8′,9′,11′,12′,13′,14′-dodecahydro-1′H-spiro[cyclopropane-1,10′-[1]oxa[4,7,10,14]tetraazacycloheptadecino[17,16-c]quinoline]-3′-carboxamide]: 324 nM and 213%.
Take `CC(C)C[C@H]1C(=O)N(C)C2(CC2)C(=O)N[C@H](Cc2ccccc2)COc2cnc3ccc(F)cc3c2C(=O)N[C@H](C(=O)NCCn2cc(Br)cn2)CC(=O)N1C` [Example 173, (3′S,7′S,13′R)-13′-benzyl-N-(2-(4-bromo-1H-pyrazol-1-yl)ethyl)-20′-fluoro-7′-isobutyl-6′,9′-dimethyl-1′,5′,8′,11′-tetraoxo-2′,3′,4′,5′,6′,7′,8′,9′,11′,12′,13′,14′-dodecahydro-1′H-spiro[cyclopropane-1,10′-[1]oxa[4,7,10,14]tetraazacycloheptadecino[17,16-c]quinoline]-3′-carboxamide]: the EC50 was 455 nM and the Emax is 212%.
On the same counts, the results for `COCCCc1cnn(CCNC(=O)[C@@H]2CC(=O)N(C)[C@@H](CC(C)C)C(=O)N(C)C3(CC3)C(=O)N[C@H](Cc3ccccc3)COc3cnc4ccc(F)cc4c3C(=O)N2)c1` [Example 174, (3′S,7′S,13′R)-13′-benzyl-20′-fluoro-7′-isobutyl-N-(2-(4-(3-methoxypropyl)-1H-pyrazol-1-yl)ethyl)-6′,9′-dimethyl-1′,5′,8′,11′-tetraoxo-2′,3′,4′,5′,6′,7′,8′,9′,11′,12′,13′,14′-dodecahydro-1′H-spiro[cyclopropane-1,10′-[1]oxa[4,7,10,14]tetraazacycloheptadecino[17,16-c]quinoline]-3′-carboxamide] are 954 nM and 194%.
Regarding `COc1cccc(C(F)(F)CNC(=O)[C@@H]2CC(=O)N(C)[C@@H](CC(C)C)C(=O)N(C)C3(CC3)C(=O)N[C@H](Cc3ccccc3)COc3cnc4ccccc4c3C(=O)N2)c1` [Example 175, (3′S,7′S,13′R)-13′-benzyl-N-(2,2-difluoro-2-(3-methoxyphenyl)ethyl)-7′-isobutyl-6′,9′-dimethyl-1′,5′,8′,11′-tetraoxo-2′,3′,4′,5′,6′,7′,8′,9′,11′,12′,13′,14′-dodecahydro-1′H-spiro[cyclopropane-1,10′-[1]oxa[4,7,10,14]tetraazacycloheptadecino[17,16-c]quinoline]-3′-carboxamide], the EC50 came to 229 nM and the Emax came to 179%.
For `COc1nccc2c1C(=O)N[C@H](C(=O)NCCc1cnn(C3CC3)c1)CC(=O)N(C)[C@@H](CC(C)C)C(=O)N1CCCC[C@@H]1C(=O)N[C@H](Cc1ccccc1)CO2` [Example 176, (7S,11S,17aR,20R)-20-benzyl-N-(2-(1-cyclopropyl-1H-pyrazol-4-yl)ethyl)-11-isobutyl-4-methoxy-10-methyl-5,9,12,18-tetraoxo-5,6,7,8,9,10,11,12,15,16,17,17a,18,19,20,21-hexadecahydro-14H-dipyrido[2,1-f:3′,4′-p][1]oxa[4,7,10,14]tetraazacycloheptadecine-7-carboxamide], the EC50 was determined as 821 nM and the Emax was found to be 245%.
Take `COc1nccc2c1C(=O)N[C@H](C(=O)NCCc1cc(C(F)(F)F)no1)CC(=O)N(C)[C@@H](CC(C)C)C(=O)N1CCCC[C@@H]1C(=O)N[C@H](Cc1ccccc1)CO2` [Example 177, (7S,11S,17aR,20R)-20-benzyl-11-isobutyl-4-methoxy-10-methyl-5,9,12,18-tetraoxo-N-(2-(3-(trifluoromethyl)isoxazol-5-yl)ethyl)-5,6,7,8,9,10,11,12,15,16,17,17a,18,19,20,21-hexadecahydro-14H-dipyrido[2,1-f:3′,4′-p][1]oxa[4,7,10,14]tetraazacycloheptadecine-7-carboxamide]: the EC50 was 647 nM and the Emax is 248%.
Take `COc1nccc2c1C(=O)N[C@H](C(=O)NCCc1nc(C(F)(F)F)no1)CC(=O)N(C)[C@@H](CC(C)C)C(=O)N1CCCC[C@@H]1C(=O)N[C@H](Cc1ccccc1)CO2` [Example 178, (7S,11S,17aR,20R)-20-benzyl-11-isobutyl-4-methoxy-10-methyl-5,9,12,18-tetraoxo-N-(2-(3-(trifluoromethyl)-1,2,4-oxadiazol-5-yl)ethyl)-5,6,7,8,9,10,11,12,15,16,17,17a,18,19,20,21-hexadecahydro-14H-dipyrido[2,1-f:3′,4′-p][1]oxa[4,7,10,14]tetraazacycloheptadecine-7-carboxamide]: the EC50 amounted to 680 nM and the Emax came out at 237%.
